Laboratory results as given in patent US20110015393A1, “PHTHALAZINONE COMPOUND” (ASTRAZENECA AB, priority 2009, published 2011).

Legend:
P-glycoprotein = molecular target: T1, P-glycoprotein (Homo sapiens, UniProt P08183); experiment: P-gp substrate activity: Dose Modification Ratio in KBA1 cells with/without Verapamil, SRB assay; assay type: in vitro ADME; settings: IC50 in absence of Verapamil divided by IC50 in presence of 20 μM Verapamil, 5 days, DMR <1.5 = not a P-gp substrate
T1 construct: Hela cell line known as KBA1, which expressed high P-glycoprotein; endogenous in cells; host or cells: KBA1 cells (HeLa-derived, high P-gp); matched non-expressing line KB31
T1 sequence (P08183 whole entry): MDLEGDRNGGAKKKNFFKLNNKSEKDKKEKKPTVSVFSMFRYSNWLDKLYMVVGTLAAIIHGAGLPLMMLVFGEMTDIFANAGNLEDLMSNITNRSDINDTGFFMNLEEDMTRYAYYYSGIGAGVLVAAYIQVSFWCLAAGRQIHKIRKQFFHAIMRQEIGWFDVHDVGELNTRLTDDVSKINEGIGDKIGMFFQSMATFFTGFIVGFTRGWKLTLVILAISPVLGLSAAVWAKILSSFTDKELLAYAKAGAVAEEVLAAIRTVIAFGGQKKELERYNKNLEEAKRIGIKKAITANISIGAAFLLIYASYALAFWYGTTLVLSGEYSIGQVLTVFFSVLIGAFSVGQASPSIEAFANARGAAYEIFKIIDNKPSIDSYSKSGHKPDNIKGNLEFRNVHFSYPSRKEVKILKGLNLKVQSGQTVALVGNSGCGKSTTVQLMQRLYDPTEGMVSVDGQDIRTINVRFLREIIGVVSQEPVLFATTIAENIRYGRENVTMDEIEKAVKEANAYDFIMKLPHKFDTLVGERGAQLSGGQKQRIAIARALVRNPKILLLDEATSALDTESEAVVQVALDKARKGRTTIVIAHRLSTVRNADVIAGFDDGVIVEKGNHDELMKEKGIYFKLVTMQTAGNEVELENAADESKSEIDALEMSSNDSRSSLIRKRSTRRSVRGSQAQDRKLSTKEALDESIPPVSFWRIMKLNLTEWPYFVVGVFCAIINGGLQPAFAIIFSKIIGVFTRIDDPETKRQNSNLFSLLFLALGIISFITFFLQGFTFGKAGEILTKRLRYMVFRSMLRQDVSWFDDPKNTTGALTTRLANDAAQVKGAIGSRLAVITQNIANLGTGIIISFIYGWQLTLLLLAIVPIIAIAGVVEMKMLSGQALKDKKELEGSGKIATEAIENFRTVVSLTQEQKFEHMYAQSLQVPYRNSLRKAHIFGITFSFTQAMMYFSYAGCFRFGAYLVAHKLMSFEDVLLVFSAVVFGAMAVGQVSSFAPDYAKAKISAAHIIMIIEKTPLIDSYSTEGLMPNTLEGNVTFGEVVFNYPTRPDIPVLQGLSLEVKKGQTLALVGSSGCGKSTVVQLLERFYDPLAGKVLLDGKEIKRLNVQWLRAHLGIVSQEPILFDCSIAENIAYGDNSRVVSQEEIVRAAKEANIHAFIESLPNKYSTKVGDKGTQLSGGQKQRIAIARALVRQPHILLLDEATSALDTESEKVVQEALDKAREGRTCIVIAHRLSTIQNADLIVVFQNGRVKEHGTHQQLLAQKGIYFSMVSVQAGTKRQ
Description: Cells from the Hela cell line known as KBA1, which expressed high P-glycoprotein (ABC1a and ABC1b transporter glycoproteins also known as MDR1a and MDR1b) and the matched non-P-glycoprotein expressing line known as KB31, were seeded onto 96 well tissue culture plates with 80 μl per well of 1.00×10^4 cells/ml=800 cells/well [DMEM, 10% FBS, PSG] and left to adhere for 4 hours. After the incubation period 10 μl per well of 200 μM Verapamil (giving a final conc. of 20 μM) a known inhibitor of P-gp or vehicle media were added to various wells of the cell plates. The 96 well plates were left in the incubator for 1 hour prior to 10 μl of test compound (or the known substrate Etoposide as a reference control) or 10 μl PBS/1% DMSO vehicle (control wells) being added into either Verapamil containing or media control wells. […]
The cell plates were then incubated for 5 days prior to cell growth being assessed using the Sulforhodamine B (SRB) assay as described previously. The P-gp substrate activity for each compound was calculated using the cell growth activity of the tests compounds on the KBA1 cells in the presence or absence (control wells) of Verapamil. The Dose Modification Ratio (DMR) is calculated from the KBA1 where for each test compound a ratio of the IC50 of the compound in the absence of Verapamil is divided by the IC50 of cell growth in the presence of Verapamil. […]

[1] = molecular target: T2, Mammalian PARP, isolated from Hela cell nuclear extract (Homo sapiens, UniProt P09874); experiment: PARP inhibition assay (FlashPlate, 3H-NAD incorporation); assay type: biochemical; settings: PARP enzyme activity; NAD 5 μM, 30° C., 45 minutes
T2 construct: isolated from Hela cell nuclear extract; endogenous in cells; host or cells: HeLa cell nuclear extract
T2 sequence (P09874 whole entry): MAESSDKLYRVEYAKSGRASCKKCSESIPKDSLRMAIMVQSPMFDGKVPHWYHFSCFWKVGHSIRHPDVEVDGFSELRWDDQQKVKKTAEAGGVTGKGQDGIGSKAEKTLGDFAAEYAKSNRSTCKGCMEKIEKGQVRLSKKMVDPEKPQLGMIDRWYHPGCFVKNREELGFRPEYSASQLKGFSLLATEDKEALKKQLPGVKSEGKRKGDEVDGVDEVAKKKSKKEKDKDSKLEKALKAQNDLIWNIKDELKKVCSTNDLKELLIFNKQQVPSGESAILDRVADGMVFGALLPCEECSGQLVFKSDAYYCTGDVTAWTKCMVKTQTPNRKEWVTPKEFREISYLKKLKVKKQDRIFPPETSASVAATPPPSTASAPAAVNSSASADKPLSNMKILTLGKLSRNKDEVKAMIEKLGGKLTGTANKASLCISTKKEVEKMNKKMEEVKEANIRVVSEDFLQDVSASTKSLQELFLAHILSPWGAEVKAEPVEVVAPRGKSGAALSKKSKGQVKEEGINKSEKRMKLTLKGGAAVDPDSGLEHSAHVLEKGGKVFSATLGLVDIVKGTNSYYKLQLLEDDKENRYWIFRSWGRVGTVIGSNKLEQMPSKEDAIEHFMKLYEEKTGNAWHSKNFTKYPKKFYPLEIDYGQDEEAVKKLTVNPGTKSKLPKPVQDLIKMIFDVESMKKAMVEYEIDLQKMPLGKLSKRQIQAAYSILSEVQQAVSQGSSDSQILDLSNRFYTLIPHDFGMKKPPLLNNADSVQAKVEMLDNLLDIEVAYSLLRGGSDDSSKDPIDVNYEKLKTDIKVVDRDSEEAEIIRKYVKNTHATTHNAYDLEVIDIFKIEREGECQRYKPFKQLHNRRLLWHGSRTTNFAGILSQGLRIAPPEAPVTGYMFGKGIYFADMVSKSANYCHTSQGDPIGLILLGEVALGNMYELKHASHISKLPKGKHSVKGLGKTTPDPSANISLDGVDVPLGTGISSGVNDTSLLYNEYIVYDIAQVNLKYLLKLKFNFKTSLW
Description: In order to assess the inhibitory action of compound 1, the following assay was used to determine the IC50 value.
Mammalian PARP, isolated from Hela cell nuclear extract, was incubated with Z-buffer (25 mM Hepes (Sigma); 12.5 mM MgCl2 (Sigma); 50 mM KCl (Sigma); 1 mM DTT (Sigma); 10% Glycerol (Sigma) 0.001% NP-40 (Sigma); pH 7.4) in 96 well FlashPlates (TRADE MARK) (NEN, UK) and varying concentrations of said inhibitors added. The compound was diluted in DMSO and gave final assay concentrations of between 10 and 0.01 μM, with the DMSO being at a final concentration of 1% per well. The total assay volume per well was 40 μl.
After 10 minutes incubation at 30° C. the reactions were initiated by the addition of a 10 μl reaction mixture, containing NAD (5 μM), ^3H-NAD and 30 mer double stranded DNA-oligos. Designated positive and negative reaction wells were done in combination with compound wells (unknowns) in order to calculate % enzyme activities. The plates were then shaken for 2 minutes and incubated at 30° C. for 45 minutes. […]
The plates were transferred to a TopCount NXT (TRADE MARK) (Packard, UK) for scintillation counting. Values recorded are counts per minute (cpm) following a 30 second counting of each well.
The % enzyme activity for the compound is then calculated using the following equation: […]

HeLa cells = experiment: Potentiation Factor (PF50): MMS growth inhibition, SRB assay; assay type: cell-based; settings: MMS 0 to 10 μg/ml, ratio of IC50 of control cell growth to IC50 of cell growth + PARP inhibitor
Description: The Potentiation Factor (PF50) for compounds is calculated as a ratio of the IC50 of control cell growth divided by the IC50 of cell growth+PARP inhibitor. Growth inhibition curves for both control and compound treated cells are in the presence of the alkylating agent methyl methanesulfonate (MMS). The test compound was used at a fixed concentration of 30 nM and 200 nM. The concentrations of MMS were over a range from 0 to 10 μg/ml. Cell growth was assessed using the sulforhodamine B (SRB) assay (Skehan, P., et al., (1990) New colorimetric cytotoxicity assay for anticancer-drug screening. J. Natl. Cancer Inst. 82, 1107-1112.). 2,000 HeLa cells were seeded into each well of a flat-bottomed 96-well microtiter plate in a volume of 100 μl and incubated for 6 hours at 37° C. Cells were either replaced with media alone or with media containing PARP inhibitor at a final concentration of 30 nM or 200 nM. Cells were allowed to grow for a further 1 hour before the addition of MMS at a range of concentrations (typically 0, 1, 2, 3, 5, 7 and 10 μg/ml) to either untreated cells or PARP inhibitor treated cells. Cells treated with PARP inhibitor alone were used to assess the growth inhibition by the PARP inhibitor. […] Plates were gently shaken and left at room temperature for 30 minutes before measuring the optical density at 564 nm on a Microquant microtiter plate reader.

## COC1CCN(C(=O)c2cc(Cc3n[nH]c(=O)c4ccccc34)ccc2F)CC1 [Compound 1, 4-(4-Fluoro-3-(4-methoxypiperidine-1-carbonyl)benzyl)phthalazin-1(2H)-one]
P-glycoprotein
  Dose Modification Ratio (DMR): 1.3
[1]
  IC50: ~5 nM
HeLa cells; test compound fixed at 30 nM
  PF50 at 30 nM: 3.0
HeLa cells; test compound fixed at 200 nM
  PF50 at 200 nM: 15
